Here are results for nine compounds from US10526385B2, “YAP protein inhibiting polypeptide and application thereof” (BAO KANG BIOMEDICAL HEALTHCARE INC, priority 2013, dated 2020).

A short description of data set [1]: Cell penetration or infiltration of the polypeptides. Format: cell-based. From the text: In this example, the sequence was modified based on SEQ ID NO.: 1. Some preferred modification based on the tested results included: adding a disulfide linkage within the peptide, or adding a cell-penetrating element.
Data set [2] in a line: Stability in plasma (percentage of residual peptides). The following applies: for Stability* (>24 h): plasma.
Protocol: For the YAP inhibitory polypeptides modified in above (a) and (b), the IC50 values for TEAD binding and the stability in plasma were measured.
The test system of data set [3] is hepatoma cell line HCCLM3. It counts as cell-based. Here is the method: (§1) The hepatoma cell line BEL7404 (purchased from The Chinese Academy of Sciences cell bank) was a cell line with high expression of YAP protein; HCCLM3 (purchased from The Chinese Academy of Sciences cell bank) was a cell line with low expression of YAP protein. The hepatoma cell lines (BEL7404 or HCCLM3) were inoculated into a 96-well plate at the concentration of 2000 cells/well, and incubated overnight in RPMI1640 containing 1% bovine serum at 37° C. The hepatoma cell lines were treated with polypeptides having different concentrations at 37° C. for 72 h.
(§2) Moreover, IC50 values of the cells in 1.1 were determined using CCK-8 kit.
(§3) The polypeptide represented by SEQ ID NO.:1 was further modified. The IC50 values of the polypeptides at a concentration of 1% in cell cultivating for 72 h were measured.

In data set [4] the test system is hepatoma cell line BEL7404. Format: cell-based. How it is done: as §1, §2, §3
Setting [5] is: Table 2, percentage of residual peptides after >24 h.
Setting [6] is: Table 8, at a concentration of 1% in cell cultivating for 72 h, unit inferred, read-out: IC50 HCCLM3.
[7] abbreviates: Table 8, at a concentration of 1% in cell cultivating for 72 h, unit inferred, read-out: IC50 BEL7404.

Each structure is given as a SMILES string. Where two headings read alike, the source gives them in different places. Where a SMILES comes first, the peptide text is derived from it. Bridges are numbered along the chain shown (N, C = ends). [ ]: non-standard residue; d: D form. Phe(3-Cl) = N[C@@H](Cc1cccc(Cl)c1)C(=O)O; hCys = N[C@@H](CCS)C(=O)O; Nle = CCCC[C@H](N)C(=O)O

With `CSCC[C@H](NC(=O)[C@@H]1CCCN1C(=O)[C@@H](N)C(C)C)C(=O)N[C@@H](CCCNC(=N)N)C(=O)N[C@@H](CC(C)C)C(=O)N[C@@H](CCCNC(=N)N)C(=O)N[C@@H](CCCCN)C(=O)N[C@@H](CC(C)C)C(=O)N1CCC[C@H]1C(=O)N[C@@H](CC(=O)O)C(=O)N[C@@H](CO)C(=O)N[C@@H](Cc1ccccc1)C(=O)N[C@@H](Cc1ccccc1)C(=O)N[C@@H](CCCCN)C(=O)N1CCC[C@H]1C(=O)N1CCC[C@H]1C(=O)N[C@@H](CCC(=O)O)C(=O)O` [SEQ ID NO.: 1], in data set [1], the “Percentage of Cell penetration or infiltration (%)” value is reported as under 10% and the uptake by cells entry is given as “difficult for effective uptake by cells”. Also, the “Stability* (>24 h)” value in data set [2] (setting [5]) was found to be 0%. In addition, in data set [2] (in words), the stability result was “low stability”.

`CSCC[C@H](NC(=O)[C@H](CCCNC(=N)N)NC(=O)[C@@H](N)CCCNC(=N)N)C(=O)N[C@@H](CCCCN)C(=O)N[C@@H](Cc1c[nH]c2ccccc12)C(=O)N[C@@H](CCCCN)C(=O)N[C@@H](CCCCN)C(=O)N1CCC[C@H]1C(=O)N[C@H](C(=O)NCC(=O)N[C@H](C(=O)N[C@H](C(=O)N[C@@H](CO)C(=O)NCC(=O)N1CCC[C@H]1C(=O)N[C@@H](C)C(=O)N[C@@H](C)C(=O)N[C@H](C(=O)N1CCC[C@H]1C(=O)N[C@H](C(=O)N[C@@H](C)C(=O)N[C@@H](CCC(N)=O)C(=O)N[C@@H](Cc1c[nH]cn1)C(=O)O)[C@@H](C)O)[C@@H](C)O)C(C)C)C(C)C)[C@@H](C)O` [SEQ ID NO.: 19]: the IC50 in data set [3] (72 h) was over 1000 µM; in data set [4] (72 h) it was 763 ± 31.5 µM.

On to `CC[C@H](C)[C@H](NC(=O)[C@H](CCCCN)NC(=O)[C@H](CCCCN)NC(=O)[C@H](Cc1c[nH]c2ccccc12)NC(=O)[C@H](CCCCN)NC(=O)[C@H](CCSC)NC(=O)[C@H](CCCNC(=N)N)NC(=O)[C@@H](N)CCCNC(=N)N)C(=O)N[C@H](C(=O)N[C@@H](Cc1c[nH]cn1)C(=O)N[C@H](C(=O)N[C@@H](CCCNC(=N)N)C(=O)NCC(=O)N[C@@H](CC(=O)O)C(=O)N[C@@H](CO)C(=O)N[C@@H](CCC(=O)O)C(=O)N[C@H](C(=O)N[C@@H](CC(=O)O)C(=O)N[C@@H](CC(C)C)C(=O)N[C@@H](CCC(=O)O)C(=O)N[C@@H](C)C(=O)N[C@@H](CC(C)C)C(=O)N[C@@H](Cc1ccccc1)C(=O)O)[C@@H](C)O)C(C)C)C(C)C` [SEQ ID NO.: 17], for which the figures for the IC50 in data set [3] (72 h) and in data set [4] (72 h) were over 1000 µM and 211 ± 44.2 µM, respectively.

For `CCCC[C@@H]1NC(=O)[C@H](CCCCN)NC(=O)[C@H](CCCCN)NC(=O)[C@H](CC(C)C)NC(=O)[C@@H](NC(=O)[C@H](Cc2cccc(Cl)c2)NC(=O)[C@@H]2CCCN2C(=O)[C@@H](N)C(C)C)CCSSC[C@@H](C(=O)N[C@@H](CCCCN)C(=O)N2CCC[C@H]2C(=O)N2CCC[C@H]2C(=O)N[C@@H](CCCNC(=N)N)C(=O)N[C@@H](CCCNC(=N)N)C(=O)N[C@@H](CCSC)C(=O)N[C@@H](CCCCN)C(=O)N[C@@H](Cc2c[nH]c3ccccc23)C(=O)N[C@@H](CCCCN)C(=O)N[C@@H](CCCCN)C(=O)O)NC(=O)[C@H](Cc2ccccc2)NC(=O)[C@H](CO)NC(=O)[C@H](CCC(=O)O)NC(=O)[C@@H]2CCCN2C1=O` [compound 29] (H-VP[Phe(3-Cl)][hCys]LKK[Nle]PESFCKPPRRMKWKK-OH; disulfide 4-13), the results for the concentration for half-maximal inhibition (IC50) in data set [3] (setting [6]) and in data set [4] (setting [7]) were 254 ± 12.3 µM and 65.6 ± 8.9 µM, respectively.

`CCCC[C@@H]1NC(=O)[C@H](CCCCN)NC(=O)[C@H](CCCCN)NC(=O)[C@H](CC(C)C)NC(=O)[C@@H](NC(=O)[C@H](Cc2cccc(Cl)c2)NC(=O)[C@@H]2CCCN2C(=O)[C@@H](N)C(C)C)CSSCC[C@@H](C(=O)N[C@@H](CCCCN)C(=O)N2CCC[C@H]2C(=O)N2CCC[C@H]2C(=O)N[C@@H](CCCNC(=N)N)C(=O)N[C@@H](CCCNC(=N)N)C(=O)N[C@@H](CCSC)C(=O)N[C@@H](CCCCN)C(=O)N[C@@H](Cc2c[nH]c3ccccc23)C(=O)N[C@@H](CCCCN)C(=O)N[C@@H](CCCCN)C(=O)O)NC(=O)[C@H](Cc2ccccc2)NC(=O)[C@H](CO)NC(=O)[C@H](C)NC(=O)[C@@H]2CCCN2C1=O` [compound 30] (H-VP[Phe(3-Cl)]CLKK[Nle]PASF[hCys]KPPRRMKWKK-OH; disulfide 4-13): the IC50 was found to be 142 ± 9.4 µM in data set [3] (setting [6]) and 28.2 ± 1.8 µM in data set [4] (setting [7]).

Consider `CCCC[C@@H]1NC(=O)[C@H](CCCCN)NC(=O)[C@H](CCCCN)NC(=O)[C@H](CC(C)C)NC(=O)[C@H](Cc2cccc(Cl)c2)NC(=O)[C@@H](NC(=O)[C@@H]2CCCN2C(=O)[C@@H](N)C(C)C)CCSSC[C@@H](C(=O)N[C@@H](Cc2ccccc2)C(=O)N[C@@H](CCCCN)C(=O)N2CCC[C@H]2C(=O)N2CCC[C@H]2C(=O)N[C@@H](CCCNC(=N)N)C(=O)N[C@@H](CCCNC(=N)N)C(=O)N[C@@H](CCSC)C(=O)N[C@@H](CCCCN)C(=O)N[C@@H](Cc2c[nH]c3ccccc23)C(=O)N[C@@H](CCCCN)C(=O)N[C@@H](CCCCN)C(=O)O)NC(=O)[C@H](CO)NC(=O)[C@H](C)NC(=O)[C@@H]2CCCN2C1=O` [compound 31] (H-VP[hCys][Phe(3-Cl)]LKK[Nle]PASCFKPPRRMKWKK-OH; disulfide 3-12), for which the IC50 was 107 ± 23.2 µM in data set [3] (setting [6]) and 16.2 ± 1.9 µM in data set [4] (setting [7]).

As for `CSCC[C@H](NC(=O)[C@H](CCC(=O)O)NC(=O)[C@H](Cc1c[nH]c2ccccc12)NC(=O)CNC(=O)[C@H](C)NC(=O)[C@@H]1CCCN1C(=O)[C@H](CCCCN)NC(=O)[C@H](CCCCN)NC(=O)[C@H](Cc1c[nH]c2ccccc12)NC(=O)[C@H](CCCCN)NC(=O)[C@H](CCSC)NC(=O)[C@H](CCCNC(=N)N)NC(=O)[C@@H](N)CCCNC(=N)N)C(=O)N[C@@H](C)C(=O)N[C@@H](CCCCN)C(=O)N[C@H](C(=O)N[C@@H](CO)C(=O)N[C@@H](CO)C(=O)NCC(=O)N[C@@H](CCC(N)=O)C(=O)N[C@@H](CCCNC(=N)N)C(=O)N[C@@H](Cc1ccc(O)cc1)C(=O)N[C@@H](Cc1ccccc1)C(=O)O)[C@@H](C)O` [SEQ ID NO.: 20], the results for the IC50 in data set [3] (72 h) and in data set [4] (72 h) were over 1000 µM and 444 ± 46.5 µM, respectively.

Take `CCCC[C@@H]1NC(=O)[C@@H](NC(=O)[C@H](CCCCN)NC(=O)[C@H](CCCCN)NC(=O)[C@H](CC(C)C)NC(=O)[C@H](Cc2cccc(Cl)c2)NC(=O)[C@@H]2CCCN2C(=O)[C@@H](N)C(C)C)CCSSC[C@@H](C(=O)N[C@@H](CCCNC(=N)N)C(=O)N[C@@H](CCCNC(=N)N)C(=O)N[C@@H](CCSC)C(=O)N[C@@H](CCCCN)C(=O)N[C@@H](Cc2c[nH]c3ccccc23)C(=O)N[C@@H](CCCCN)C(=O)N[C@@H](CCCCN)C(=O)O)NC(=O)[C@@H]2CCCN2C(=O)[C@@H]2CCCN2C(=O)[C@H](CCCCN)NC(=O)[C@H](Cc2ccccc2)NC(=O)[C@H](CO)NC(=O)[C@H](C)NC(=O)[C@@H]2CCCN2C1=O` [compound 33] (H-VP[Phe(3-Cl)]LKK[hCys][Nle]PASFKPPCRRMKWKK-OH; disulfide 7-16): the IC50 in data set [3] (setting [6]) stood at 81.1 ± 13.1 µM; in data set [4] (setting [7]), 10.8 ± 2.1 µM.

On to `CSCC[C@H](NC(=O)[C@@H]1CCCN1C(=O)[C@@H](N)C(C)C)C(=O)N[C@H]1CCSSC[C@@H](C(=O)N[C@@H](CCCCN)C(=O)N2CCC[C@H]2C(=O)N2CCC[C@H]2C(=O)N[C@@H](CCC(=O)O)C(=O)O)NC(=O)[C@H](Cc2ccccc2)NC(=O)[C@H](CO)NC(=O)[C@H](CC(=O)O)NC(=O)[C@@H]2CCCN2C(=O)[C@H](CC(C)C)NC(=O)[C@H](CCCCN)NC(=O)[C@H](CCCNC(=N)N)NC(=O)[C@H](CC(C)C)NC1=O` [Peptide 2], for which the “Percentage of Cell penetration or infiltration (%)” value in data set [1] (Table 2, penetration of the peptide with RRMKWKK taken as 100%) came out at 8%. Besides, the “Stability* (>24 h)” value in data set [2] (setting [5]) is 13%; in data set [2] (Table 3, >24 h), 7%.
